Measured values taken from patent US20230272012A1, “PEPTIDES AND METHODS OF USE” (REALTA LIFE SCIENCES, INC., priority 2020, published 2023).
“Also recorded” adds a separate entry of the source. Bridge positions count the residues as written; N and C are the ends. Square brackets hold non-standard residues; d marks the D form. Ends that are not written are not given here. Peptide text beside a SMILES is read from it. R8 = C=CCCCCCC[C@@](C)(N)C(=O)O; S5 = C=CCCC[C@](C)(N)C(=O)O; Sar = CNCC(=O)O

Assays:
C1q = biological target: T1, C1q (Homo sapiens, UniProt P02745+P02746+P02747); assay: C1q binding ELISA-type assay; conditions: for binding to C1q: plate-bound C1q, antibody detection
T1 construct: purchased Complement Technology (Tyler, Tex.)
Method: The C1q binding assay was performed as previously described. Briefly, an Immunlon-2 HB ELISA plate was coated with 1 μg/ml C1q in bicarbonate buffer overnight at 4° C. The plates were washed with PBS-T (phosphate buffered saline+0.1% Tween) and then blocked with 1% gelatin/PBS for 2 hours at room temperature. After washing, the plates were incubated with the peptides starting at 2.5 mg/ml and then serially diluted in 1% gelatin/PBS for 1 hour at room temperature followed by washing. Plates were then probed with rabbit antibody raised against the lead peptide […] (SEQ ID NO: 2) that lacked PEGylation at 1:1000 in 1% gelatin/PBS for 1 hour at room temperature followed by a goat anti-rabbit HRP (Sigma Aldrich, St Louis, Mo.) at 1:1,000 in 1% gelatin/PBS for 1 hour at room temperature with a washing step in between. After addition of TMB substrate solution to the wells, the reaction was stopped using 1N H2SO4, and the plate read on a BioTek Synergy HT plate reader at 450 nm.
The astrovirus capsid protein and the PIC1 molecules derived from it inhibit classical complement pathway activation by binding to the pattern recognition molecule C1q. The inventors next tested peptide variant binding to C1q in an ELISA-type assay in which C1q is used as the capture substrate and bound peptide detected with a rabbit polyclonal antibody against the peptide portion of PA-dPEG24 ([…]-d24; SEQ ID NO: 3). Binding curves were derived for the stapled and D-amino acid peptides based on the PA-I8Sar and PA-C9Sar (FIG. 6A-6D) backbone, from which half-maximal binding concentrations were calculated (FIGS. 2A and B, respectively). […] For the D-amino acid variants, all peptides in which C1q binding was detected, had variable but increased binding to C1q compared to PA-I8Sar (FIG. 2A). For the peptides based on the PA-C9Sar backbone, with the exception of PA-0148, C1q was bound to the same degree or greater than the parent peptide (FIG. 2B).
The inventors also assessed the ability of RLS-0127* and RLS-0133* to inhibit MPO activity as determined by inhibition of oxidation of TMB in a plate-based assay. […] Additionally, the inventors assessed the ability of RLS-0127* and RLS-0133* to bind C1q in a plate-based assay in which C1q is coated on the plate and increasing amounts of the peptides are added, followed by primary antibody to the peptides and secondary antibody conjugated to HRP. The plate was then incubated with TMB to give a […] signal that is detected at a wavelength of 450 nm in a plate reader.

PD-1/PD-L1 interaction = biological target: T2, PD-1/PD-L1 interaction (Homo sapiens, UniProt Q15116+Q9NZQ7); assay: PD-1/PD-L1 Blockade Bioassay (Promega); format: cell-based; conditions: increasing peptide concentrations
T2 construct: host or cells: PD-1 effector cells; PD-L1 aAPC/CHO-K1 cells
Summary of the method: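 PD-1 effector cells co-cultured with PD-L1 aAPC/CHO-K1 cells, with or without increasing concentrations of peptides; anti-PD-1 antibody as positive control. Blockade of PD-1/PD-L1 restores TCR signalling, read as NFAT-driven luciferase luminescence.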

[1] = system: purified human Pan T-cells; assay: T-cell exhaustion protocol (Dynabeads re-stimulation); format: cell-based; conditions: peptides 2 mg/ml at each stimulation; for IL-2 signal at stimulation 2: supernatant ELISA

T2 sequence (Q15116 25-288): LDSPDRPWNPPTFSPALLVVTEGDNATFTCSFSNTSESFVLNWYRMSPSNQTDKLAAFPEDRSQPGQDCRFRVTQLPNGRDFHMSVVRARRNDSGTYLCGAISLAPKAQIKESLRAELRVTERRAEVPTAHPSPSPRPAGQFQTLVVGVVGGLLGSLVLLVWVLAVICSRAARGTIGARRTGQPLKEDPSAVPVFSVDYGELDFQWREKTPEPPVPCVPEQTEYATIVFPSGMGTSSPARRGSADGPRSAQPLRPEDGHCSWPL
T2 sequence (Q9NZQ7 19-290): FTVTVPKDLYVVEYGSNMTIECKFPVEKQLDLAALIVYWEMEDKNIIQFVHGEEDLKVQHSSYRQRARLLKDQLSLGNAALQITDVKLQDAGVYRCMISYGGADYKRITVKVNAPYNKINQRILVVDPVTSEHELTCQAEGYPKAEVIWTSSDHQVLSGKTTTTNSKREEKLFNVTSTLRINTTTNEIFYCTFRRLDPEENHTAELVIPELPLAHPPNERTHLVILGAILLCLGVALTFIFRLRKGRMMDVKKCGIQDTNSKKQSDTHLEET
T1 sequence (P02745 23-245): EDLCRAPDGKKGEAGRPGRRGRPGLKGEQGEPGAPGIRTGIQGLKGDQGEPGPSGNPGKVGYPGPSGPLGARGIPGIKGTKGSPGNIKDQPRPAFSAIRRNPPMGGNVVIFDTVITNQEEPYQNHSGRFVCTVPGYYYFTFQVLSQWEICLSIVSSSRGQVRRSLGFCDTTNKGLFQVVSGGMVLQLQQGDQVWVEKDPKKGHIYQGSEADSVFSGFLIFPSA
T1 sequence (P02746 28-253): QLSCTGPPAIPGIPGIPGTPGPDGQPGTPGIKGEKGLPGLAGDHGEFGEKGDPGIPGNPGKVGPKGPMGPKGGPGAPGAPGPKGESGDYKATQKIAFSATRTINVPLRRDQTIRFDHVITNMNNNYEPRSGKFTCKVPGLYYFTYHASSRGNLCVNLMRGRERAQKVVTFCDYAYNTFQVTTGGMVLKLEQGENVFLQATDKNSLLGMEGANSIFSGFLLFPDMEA
T1 sequence (P02747 29-245): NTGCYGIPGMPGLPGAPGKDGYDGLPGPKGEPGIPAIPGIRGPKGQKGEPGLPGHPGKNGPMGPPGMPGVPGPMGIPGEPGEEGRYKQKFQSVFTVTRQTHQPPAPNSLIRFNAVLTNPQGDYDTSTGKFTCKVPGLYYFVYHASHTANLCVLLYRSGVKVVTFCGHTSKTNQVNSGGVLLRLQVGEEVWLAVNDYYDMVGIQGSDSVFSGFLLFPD

Molecule	binding to C1q (C1q)	inhibition of PD-1/PD-L1 inhibitory signaling (luminescence) (PD-1/PD-L1 interaction)	IL-2 signal at stimulation 2 [1]	inhibition of PD-1/PD-L1 inhibitory signaling (luminescence) (PD-1/PD-L1 interaction; listed as RLS-0117)	Caspase 3/7 levels ([1]; eighth day)	binding to C1q compared with PA-I8Sar (C1q; half-maximal binding from binding curves)
IALILEP(Sar)dCCQERRA (IALILEP[Sar][dC]CQERRA; cysteine pairing not given here) [RLS-0127*]	bound C1q in a dose-dependent manner; also recorded: binds C1q	increase in luminescence indicative of inhibition of PD-1/PD-L1 inhibitory signaling; also recorded: able to inhibit PD-1/PD-L1 mediated cell signaling	showed an IL-2 signal at stimulation 2			
CC[C@H](C)[C@H](N)C(=O)N[C@@H](C)C(=O)N[C@@H](CC(C)C)C(=O)N[C@H](C(=O)N[C@@H](CC(C)C)C(=O)N[C@@H](CCC(=O)O)C(=O)N1CCC[C@H]1C(=O)N(C)CC(=O)N[C@@H](CS)C(=O)N[C@@]1(C)CCCC=CCCC[C@@](C)(C(=O)N[C@@H](C)C(=O)O)NC(=O)[C@H](CCCNC(=N)N)NC(=O)[C@H](CCC(=O)O)NC(=O)[C@H](CCC(N)=O)NC1=O)[C@@H](C)CC [PA-0117, IALILEP(Sar)CS5QERS5A] (H-IALILEP[Sar]C[S5]QER[S5]A-OH; staple 10-14)	dose-dependent binding		showed an IL-2 signal at stimulation 2	increase in luminescence indicative of inhibition of PD-1/PD-L1 inhibitory signaling; also recorded: able to inhibit PD-1/PD-L1 mediated cell signaling	very low to undetectable levels of Caspase 3/7	
IALILEP(Sar)CCQERA (IALILEP[Sar]CCQERA; cysteine pairing not given here) [RLS-0133*]		increase in luminescence indicative of inhibition of PD-1/PD-L1 inhibitory signaling; also recorded: able to inhibit PD-1/PD-L1 mediated cell signaling	did not			
CC[C@H](C)[C@H](N)C(=O)N[C@]1(C)CCCCCCC=CCCC[C@@](C)(C(=O)N[C@@H](CS)C(=O)N[C@@H](CCC(N)=O)C(=O)N[C@@H](CCC(=O)O)C(=O)N[C@@H](CCCNC(=N)N)C(=O)N[C@@H](C)C(=O)N[C@@H](C)C(=O)O)NC(=O)CN(C)C(=O)[C@@H]2CCCN2C(=O)[C@H](CCC(=O)O)NC(=O)[C@H](CC(C)C)NC(=O)[C@H]([C@@H](C)CC)NC(=O)[C@H](CC(C)C)NC1=O [PA-0115, IR8LILEP(Sar)S5CQERAA] (H-I[R8]LILEP[Sar][S5]CQERAA-OH; staple 2-9)		did not show PD-1/PD-L1 inhibitory activity	did not			markedly increased binding to C1q; also recorded: enhanced activity
